Reference: patent publication US20260199305A1, “LONG-ACTING ORAL PHARMACEUTICAL COMPRISING HYPOXIA-INDUCIBLE FACTOR PROLYL HYDROLASE INHIBITOR AND USE THEREOF” (Kind Pharmaceutical, priority 2023, published 2026)

System: Normal Mice
Experiment: Hemoglobin increase in normal mice, oral QD, TIW, QW
Format: in vivo, C57BL/6J mice
Excerpt: This experiment evaluated the effects of different dosing frequencies of the test compound Comp-1 at the same weekly dose on hemoglobin and various routine hematological parameters in male C57BL/6J mice.
After acclimatization feeding, on Day 0, submandibular vein blood was collected from 92 male mice aged 6-8 weeks for routine hematological analysis. Based on the Day 0 Hb (hemoglobin) results, 80 mice were selected for use in this experiment and divided into groups as follows: Vehicle (QD, 5 mice), Comp-1 (4.5 mg/kg, QD, 5 mice), Comp-1 (10.5 mg/kg, TIW, 5 mice), Comp-1 (31.5 mg/kg, QW, 5 mice), Comp-1 (9 mg/kg, QD, 15 mice), Comp-1 (21 mg/kg, TIW, 15 mice), Comp-1 (63 mg/kg, QW, 15 mice), Comp-1 (15 mg/kg, QD, 5 mice), Comp-1 (35 mg/kg, TIW, 5 mice), and Comp-1 (105 mg/kg, QW, 5 mice). On Day 14 and Day 28, submandibular vein blood was collected for routine hematological analysis. Quantitative data results were analyzed statistically using one-way analysis of variance (ANOVA) between groups, followed by Dunnett's multiple comparison method. Two-tailed analysis was used for statistics, and the statistical significance level was set at P<0.05.

[1] = 4.5 mg/kg, QD, total weekly dose 31.5 mg/kg
[2] = 9.0 mg/kg, QD, total weekly dose 63.0 mg/kg
[3] = 10.5 mg/kg, TIW, total weekly dose 31.5 mg/kg
[4] = 15.0 mg/kg, QD, total weekly dose 105.0 mg/kg
[5] = 21.0 mg/kg, TIW, total weekly dose 63.0 mg/kg
[6] = 31.5 mg/kg, QW, total weekly dose 31.5 mg/kg
[7] = 35.0 mg/kg, TIW, total weekly dose 105.0 mg/kg
[8] = 63.0 mg/kg, QW, total weekly dose 63.0 mg/kg
[9] = 105.0 mg/kg, QW, total weekly dose 105.0 mg/kg

SMILES: O=C(O)CNC(=O)C1=C(O)C2(CCCC2)n2c(ccc2-c2ccccc2)C1=O [Comp-1, (6′-hydroxy-8′-oxo-3′-phenyl-8′H-spiro[cyclopentane-1,5′-indolizine]-7′-carbonyl)glycine]
- Hb Day 0 [1]: 15.2 ± 0.61 g/dL
- Hb Day 14 [1]: 18.2 ± 0.52 g/dL
- Hb Day 28 [1]: 19.7 ± 0.53 g/dL
- Hb Day 0 [2]: 15.3 ± 0.51 g/dL
- Hb Day 14 [2]: 20.6 ± 0.44 g/dL
- Hb Day 28 [2]: 23.1 ± 0.80 g/dL
- Hb Day 0 [3]: 15.3 ± 0.66 g/dL
- Hb Day 14 [3]: 17.9 ± 0.54 g/dL
- Hb Day 28 [3]: 19.2 ± 0.22 g/dL
- Hb Day 0 [4]: 15.3 ± 0.48 g/dL
- Hb Day 14 [4]: 20.1 ± 0.54 g/dL
- Hb Day 28 [4]: 22.8 ± 0.29 g/dL
- Hb Day 0 [5]: 15.3 ± 0.49 g/dL
- Hb Day 14 [5]: 19.7 ± 0.77 g/dL
- Hb Day 28 [5]: 22.0 ± 0.11 g/dL
- Hb Day 0 [6]: 15.3 ± 0.48 g/dL
- Hb Day 14 [6]: 16.7 ± 0.40 g/dL
- Hb Day 28 [6]: 17.2 ± 0.52 g/dL
- Hb Day 0 [7]: 15.3 ± 0.44 g/dL
- Hb Day 14 [7]: 18.9 ± 0.11 g/dL
- Hb Day 28 [7]: 22.4 ± 0.57 g/dL
- Hb Day 0 [8]: 15.3 ± 0.51 g/dL
- Hb Day 14 [8]: 17.4 ± 0.62 g/dL
- Hb Day 28 [8]: 18.5 ± 0.74 g/dL
- Hb Day 0 [9]: 15.3 ± 0.50 g/dL
- Hb Day 14 [9]: 19.0 ± 0.40 g/dL
- Hb Day 28 [9]: 20.0 ± 0.48 g/dL
- mean hemoglobin values vs Vehicle control group (Day 14 and Day 28, all groups receiving Comp-1, P<0.001): significantly different
